{"source": "patent US20260000708A1", "about": "“Copper Hydrogel Beads as a Diet Supplement” (Texas Tech University System, priority 2021, published 2026)", "system": "Salmonella", "assay": "Time-release formulation compared to copper sulfate alone against Salmonella cells in vitro", "assay_type": "cell-based", "conditions": "after application (FIG. 3)"}
{"compound": "O=S(=O)([O-])[O-].[Cu+2]", "note": "[copper sulfate]", "values": [{"measurement": "Duration of effectiveness against Salmonella", "value": "only effective for a short time"}]}
